Values joined by “and” are separate entries in the source; they are usually repeats but may differ in a detail not shown here. Identical values can stand only once. Like-named read-outs stand apart in the source and are kept apart here.
How the values were obtained:
[1] = target: T1, trypsin-like activity of purified rabbit muscle 20S proteasome (Oryctolagus cuniculus, UniProt G1SWK8); assay: biochemical
T1 sequence (G1SWK8 1-271): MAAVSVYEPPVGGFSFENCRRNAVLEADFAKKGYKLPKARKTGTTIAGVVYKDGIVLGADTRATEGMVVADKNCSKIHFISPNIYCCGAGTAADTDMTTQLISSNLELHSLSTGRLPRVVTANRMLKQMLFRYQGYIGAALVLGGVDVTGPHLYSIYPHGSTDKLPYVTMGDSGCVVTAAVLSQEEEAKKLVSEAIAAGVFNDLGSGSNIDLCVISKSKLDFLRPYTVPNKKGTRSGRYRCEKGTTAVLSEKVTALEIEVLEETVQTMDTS

[2] = target: T2, chymotrypsin-like activity of 20S proteasomes in PC-3 cells (Homo sapiens, UniProt P28074); assay: Chymotrypsin-like activity of 20S proteasomes in lysates of treated PC-3 cells; assay type: cell-based; details: PC-3, read-out: % inhibition of the chymotrypsin-like activity of 20S proteasomes in PC-3 cell lysates; 100 nM; 1 hr incubation
T2 construct: endogenous in cells; host or cells: PC-3 (ATCC CRL-1435)
Procedure: PC-3 (ATCC, CRL-1435), the human prostate cancer cell line, was cultured in F12K medium supplemented with 2 mM L-glutamine, 100 units/ml penicillin, 100 μg/ml streptomycin and 10% heat inactivated fetal bovine serum at 37° C., 5% CO2 and 95% humidified air. […] DMSO was used as the vehicle control at a final concentration of 0.1%. Following 1 hr incubation of PC-3 cells with the compounds, the cells were washed 3× with ice-cold 1× Dulbecco's Phosphate-Buffered Saline (DPBS, Mediatech, Herndon, Va.). […] Cell debris was pelleted by centrifugation at 14,000 rpm for 10 min, 4° C. and supernatants (=cell lysates) were transferred to a new tube. Protein concentration was determined by the BCA protein assay kit (Pierce Biotechnology, Rockford, Ill.). […] The released coumarin (AMC) was measured fluorometrically by using λex=390 nm and λem=460 nm. The assay was performed in a microtiter plate (Corning 3904) and followed kinetically with measurements every five minutes for 2 hr. The total amount of protein used for each assay was 20 μg. The final concentration of Suc-LLVY-AMC and DMSO was 20 μM and 0.2%, respectively. Results are presented as the percent inhibition of the 20S proteasome chymotrypsin-like activity relative to the DMSO control.

[3] = target: T3, chymotrypsin-like activity of 20S proteasomes in RPMI 8226 cells (Homo sapiens, UniProt P28074); assay: Chymotrypsin-like activity of 20S proteasomes in lysates of treated RPMI 8226 cells; assay type: cell-based; details: RPMI-8226, read-out: % inhibition of the chymotrypsin-like activity of 20S proteasomes in RPMI 8226 cell lysates
T3 construct: added to 2.5×10^5/ml RMPI 8226 cells; endogenous in cells; host or cells: RPMI 8226 (ATCC CCL-155)
T3 sequence (P28074 60-263): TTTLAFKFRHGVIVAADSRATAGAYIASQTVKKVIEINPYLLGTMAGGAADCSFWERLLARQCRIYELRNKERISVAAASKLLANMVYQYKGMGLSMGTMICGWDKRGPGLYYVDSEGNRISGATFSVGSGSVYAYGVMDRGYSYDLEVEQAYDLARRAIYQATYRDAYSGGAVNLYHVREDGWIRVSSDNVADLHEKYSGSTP
Procedure: RPMI 8226 (ATCC, CCL-155), the human multiple myeloma cell line, was cultured in RPMI 1640 medium supplemented with 2 mM L-glutamine, 100 units/ml penicillin, 100 μg/ml streptomycin, 1 mM sodium pyruvate and 10% heat inactivated fetal bovine serum at 37° C., 5% CO2 and 95% humidified air. […] DMSO was used as the vehicle control at a final concentration of 0.1%. Following 1 hr incubation of RMPI 8226 cells with the compounds, the cells were pelleted by centrifugation at 2,000 rpm for 10 sec at room temperature and washed 3× with ice-cold 1× Dulbecco's Phosphate-Buffered Saline (DPBS, Mediatech, Herndon, Va.). DPBS washed cells were lysed on ice for 15 min in lysis buffer (20 mM HEPES, 0.5 mM EDTA, 0.05% Triton X-100, pH 7.3) supplemented with protease inhibitor cocktail (Roche Diagnostics, Indianapolis, Ind.). Cell debris was pelleted by centrifugation at 14,000 rpm for 10 min, 4° C. and supernatants (=cell lysates) were transferred to a new tube. Protein concentration was determined by the BCA protein assay kit (Pierce Biotechnology, Rockford, Ill.). […] The released coumarin (AMC) was measured fluorometrically by using λex=390 nm and λem=460 nm. The assay was performed in a microtiter plate (Corning 3904) and followed kinetically with measurements every five minutes for 2 hr. The total amount of protein used for each assay was 20 μg. The final concentration of Suc-LLVY-AMC and DMSO was 20 μM and 0.2%, respectively.

[4] = tested on: NCI-H292; assay: Cell growth inhibition (resazurin), NCI-H292; details: from EC50 values
[5] = tested on: RPMI 8226; assay: cells
Procedure: RPMI 8226 (CCL-155), HT-29 (HTB-38), and B16-F10 (CRL-6475) cells were purchased from ATCC. RPMI 8226 cells were maintained in RPMI 1640 media supplemented with 10% (v/v) FBS, 2 mM L-glutamine, 1 mM sodium pyruvate and Penicillin/Streptomycin at 100 IU/ml and 100 μg/ml, respectively. HT-29 cells were maintained in McCoys 5A supplemented with 10% (v/v) FBS, 2 mM L-glutamine, 1 mM sodium pyruvate, 1% (v/v) non-essential amino acids, 10 mM HEPES and Penicillin/Streptomycin at 100 IU/ml and 100 μg/ml, respectively. B16-F10 cells were maintained in DMEM supplemented with 10% (v/v) FBS, 2 mM L-glutamine, 10 mM HEPES and Penicillin/Streptomycin at 100 IU/ml and 100 μg/ml, respectively.
RPMI 8226 cells were seeded at 2×10^4 cells/well in 90 μl RPMI media containing 10% (v/v) FBS or 1% (v/v) FBS into 96 well black-walled, clear-bottom tissue culture plates. […] Formulae II-16, II-17 and Formula II-18 were serially diluted in media containing 1% or 10% FBS and added in triplicate to the test wells. […] The final concentration of Formula II-18 ranged from 2 μM to 630 pM.

| SMILES | EC50 [1] | inhibition at 0.1 µM [2] | inhibition at 0.001 µM [3] | inhibition at 0.005 µM [3] | inhibition at 0.01 µM [3] | inhibition at 0.05 µM [3] | inhibition at 0.1 µM [3] | inhibition at 0.5 µM [3] | inhibition at 1 µM [3] | inhibition at 10 µM [3] | cytotoxicity against NCI-H292, in words [4] | cytotoxicity against RPMI 8226 in media containing 1% or 10% FBS, in words ([5]; 1% or 10% FBS) | EC50 ([5]; Homo sapiens, RPMI-8226, read-out: 1% FBS, EC50, RPMI 8226, media containing 1% FBS, single experiments) | EC50 ([5]; Homo sapiens, RPMI-8226, read-out: 10% FBS, EC50, RPMI 8226, media containing 10% FBS, single experiments) | EC50 ([5]; Homo sapiens, RPMI-8226, read-out: Mean 1% FBS, EC50, RPMI 8226, media containing 1% FBS, mean) | EC50 ([5]; Homo sapiens, RPMI-8226, read-out: Mean 10% FBS, EC50, RPMI 8226, media containing 10% FBS, mean) | change in the mean EC50, 10% FBS relative to 1% FBS ([5]; RPMI 8226) | EC50 ([5]; read-out: 1% FBS, EC50, RPMI 8226, media containing 1% FBS, single experiments) |
| --- | --- | --- | --- | --- | --- | --- | --- | --- | --- | --- | --- | --- | --- | --- | --- | --- | --- | --- |
| C[C@H]1C(=O)N[C@@]2(C(O)[C@@H]3C=CCCC3)C(=O)O[C@@]12C (single isomer, unassigned) [Formula II-20] | 318 nM and 321 nM | 57% | 3 ± 10% | 31 ± 9% | 37 ± 3% | 64 ± 3% | 66 ± 3% | 71 ± 2% | 73 ± 2% | 87 ± 4% |  |  |  |  |  |  |  |  |
| C[C@@]12OC(=O)[C@]1([C@@H](O)[C@@H]1C=CCCC1)NC(=O)[C@@H]2CCBr [Formula II-18] |  |  |  |  |  |  |  |  |  |  | cytotoxic | cytotoxic | 15 nM | 20 nM | 14 nM | 20 nM | less than three fold decrease | 13 nM |

Reference: patent publication US7544814B2, “[3.2.0] Heterocyclic compounds and methods of using the same” (Nereus Pharmaceuticals, Inc., priority 2004, dated 2009)
